For this assay, the target named is T1, Hydroxyproline dehydrogenase (Homo sapiens, UniProt Q9UF12).
T1 sequence (Q9UF12 whole entry): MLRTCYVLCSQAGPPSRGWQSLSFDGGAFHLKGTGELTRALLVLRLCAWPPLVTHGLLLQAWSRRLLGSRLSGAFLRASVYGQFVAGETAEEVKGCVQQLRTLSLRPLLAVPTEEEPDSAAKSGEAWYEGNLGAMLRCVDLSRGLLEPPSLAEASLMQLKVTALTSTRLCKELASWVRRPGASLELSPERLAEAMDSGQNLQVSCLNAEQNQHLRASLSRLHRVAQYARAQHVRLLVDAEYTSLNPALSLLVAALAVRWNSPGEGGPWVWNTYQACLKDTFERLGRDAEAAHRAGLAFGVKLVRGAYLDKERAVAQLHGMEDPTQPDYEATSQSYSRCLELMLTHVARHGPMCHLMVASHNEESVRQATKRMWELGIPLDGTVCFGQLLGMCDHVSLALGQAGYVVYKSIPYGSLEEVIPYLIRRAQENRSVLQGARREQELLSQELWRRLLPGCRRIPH
The experiment in a line: Inhibition of human recombinant HYPDH expressed in Escherichia coli using hydroxyproline as substrate preincubated for 5 mins followed by substrate addition in presence of FAD as cofactor.

Consider `O=C(O)c1ccco1`, for which the IC50 entry was “Nd(Insoluble)”.
